According to patent publication US11673910B2, “Macrolides with modified desosamine sugars and uses thereof” (Zikani Therapeutics, Inc., priority 2017, dated 2023):
Converted amounts (≈) assume the structure as drawn.

Tests used:
Type in all cases: cell-based
[1] = tested on: E. coli strain MP-4; assay: Broth dilution MIC determination (CLSI) against E. coli strain MP-4; settings: Escherichia coli, MP4
Method in brief: (§1)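 Broth dilution per CLSI guidance gave the MIC for each macrolide. Three activity tiers: MIC not above 4 mg/L (+++); between 8 and below 32 mg/L (++); 32 mg/L or more (+).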

[2] = tested on: K. pneumoniae strain MP-548; assay: Broth dilution MIC determination (CLSI) against K. pneumoniae strain MP-548; settings: Klebsiella pneumoniae, MP548
Method in brief: as §1

[3] = tested on: P. aeruginosa strain MP-3; assay: Broth dilution MIC determination (CLSI) against P. aeruginosa strain MP-3; settings: Pseudomonas aeruginosa, MP3
Method in brief: as §1

[4] = tested on: A. baumannii strain MP-15; assay: Broth dilution MIC determination (CLSI) against A. baumannii strain MP-15; settings: Acinetobacter baumannii, MP15
Method in brief: as §1

[5] = tested on: S. aureus strain MP-12; assay: Broth dilution MIC determination (CLSI) against S. aureus strain MP-12; settings: Staphylococcus aureus, MP12, strain MP-12
Method in brief: as §1

Structure (SMILES)	MIC [1] [µg/mL]	MIC [2] [µg/mL]	MIC [3] [µg/mL]	MIC [4] [µg/mL]	MIC [5] [µg/mL]
CC[C@H]1OC(=O)C(C)C(=O)[C@H](C)[C@@H](OC2OC(CN(C)C3CC3)CC(N(C)C)C2O)[C@](C)(OC)C[C@@H](C)CN(C)[C@H](C)[C@H]2NC(=O)O[C@@]21C (stereo partly drawn) [Compound 157, 3-Descladinosyl-3-oxo-6-O-methyl-11,12-dideoxy-12,11-(oxycarbonylimino)-6′-[N-(methyl)cyclopropylamino]Azithromycin]	≤ 4	8 to 32 (≈ 11.5 to 45.9 µM)	≥ 32	8 to 32 (≈ 11.5 to 45.9 µM)	8 to 32 (≈ 11.5 to 45.9 µM)
CC[C@H]1OC(=O)[C@@]2(C)CCOC(C)(C[C@@H](C)CN(C)[C@H](C)[C@H]3NC(=O)O[C@@]31C)[C@H](O[C@@H]1OC(CN)CC(N(C)C)C1O)[C@@H](C)C2=O (stereo partly drawn) [Compound 218]	8 to 32 (≈ 12.2 to 48.9 µM)	≥ 32	≥ 32	≥ 32	8 to 32 (≈ 12.2 to 48.9 µM)
CC[C@H]1OC(=O)C(C)C(=O)[C@H](C)[C@@H](OC2OC(CN3CC4CC4C3)CC(N(C)C)C2O)[C@](C)(OC)C[C@@H](C)CN[C@H](C)[C@H]2NC(=O)O[C@@]21C (stereo partly drawn) [Compound 137, 3-Descladinosyl-3-oxo-6-O-methyl-N9a-desmethyl-11,12-dideoxy-12,11-(oxycarbonylimino)-6′-azabicyclo[3.1.0]hexan-3″-ylamino Azithromycin]	≤ 4	8 to 32 (≈ 11.5 to 46 µM)	≥ 32	8 to 32 (≈ 11.5 to 46 µM)	≥ 32
CC[C@H]1OC(=O)C(C)C(=O)[C@H](C)[C@@H](OC2OC(CN(C)OC)CC(N(C)C)C2O)[C@](C)(OC)C[C@@H](C)CN[C@H](C)[C@H]2NC(=O)O[C@@]21C (stereo partly drawn) [Compound 145]	8 to 32 (≈ 11.9 to 47.6 µM)	8 to 32 (≈ 11.9 to 47.6 µM)	≥ 32	≥ 32	≥ 32
CC[C@H]1OC(=O)C(C)C(=O)[C@H](C)[C@@H](OC2OC(CN(C)CCOC)CC(N(C)C)C2O)[C@](C)(OC)C[C@@H](C)CN[C@H](C)[C@H]2NC(=O)O[C@@]21C (stereo partly drawn) [Compound 131, 3-Descladinosyl-3-oxo-6-O-methyl-N9a-desmethyl-11,12-dideoxy-12,11-(oxycarbonylimino)-6′-[N-(methyl)-2-methoxyethylamino]Azithromycin]	≤ 4	8 to 32 (≈ 11.4 to 45.7 µM)	≥ 32	≥ 32	≥ 32
CC[C@H]1OC(=O)C(C)(C)C(=O)[C@H](C)[C@@H](O[C@@H]2O[C@H](CNC3CC3)CC(N(C)C)[C@H]2O)[C@](C)(OC)C[C@@H](C)CN[C@H](C)[C@H]2NC(=O)O[C@@]21C (stereo partly drawn) [Compound 192, 2-Methyl-3-descladinosyl-3-oxo-6-O-methy 1-N9a-desmethyl-11,12-dideoxy-12,11-(oxycarbonylimino)-6′-cylcopropylamino Azithromycin]	≤ 4	≥ 32	≥ 32	≥ 32	≥ 32
CC[C@H]1OC(=O)[C@@](C)(F)C(=O)[C@H](C)[C@@H](O[C@@H]2OC(CNCc3ccn(C)n3)CC(N(C)C)C2O)[C@](C)(OC)C[C@@H](C)C(=O)[C@H](C)[C@H]2NC(=O)O[C@@]21C (stereo partly drawn) [Compound 102]	8 to 32 (≈ 10.8 to 43.3 µM)	≥ 32	≥ 32	≥ 32	≤ 4
CC[C@H]1OC(=O)C(C)C(=O)[C@H](C)[C@@H](O[C@@H]2OC(CNCc3nccn3C)CC(N(C)C)C2O)[C@](C)(OC)C[C@@H](C)CN[C@H](C)[C@H]2NC(=O)O[C@@]21C (stereo partly drawn) [Compound 25]	≥ 32	≥ 32	≥ 32	≥ 32	≥ 32
CC[C@H]1OC(=O)C(C)C(=O)[C@H](C)[C@@H](OC2OC(CN3CC(F)C3)CC(N(C)C)C2O)[C@](C)(OC)C[C@@H](C)CN[C@H](C)[C@H]2NC(=O)O[C@@]21C (stereo partly drawn) [Compound 143, 3-Descladinosyl-3-oxo-6-O-methyl-N9a-desmethyl-11,12-dideoxy-12,11-(oxycarbonylimino)-6′-(3″-fluoroazetidin-1″-yl) Azithromycin]	≤ 4	8 to 32 (≈ 11.6 to 46.6 µM)	≥ 32	≥ 32	8 to 32 (≈ 11.6 to 46.6 µM)
CC[C@H]1OC(=O)C(C)C(=O)[C@H](C)[C@@H](OC2OC(CNCC(=O)N(C)C)CC(N(C)C)C2O)[C@](C)(OC)C[C@@H](C)CN[C@H](C)[C@H]2NC(=O)O[C@@]21C (stereo partly drawn) [Compound 117, 3-Descladinosyl-3-oxo-6-O-methyl-N9a-desmethyl-11,12-dideoxy-12,11-(oxycarbonylimino)-6′-(N—(N,N-dimethylacetamidyl)-amino) Azithromycin]	≥ 32	≥ 32	≥ 32	≥ 32	≥ 32
CC[C@H]1OC(=O)C(C)C(=O)[C@H](C)[C@@H](O[C@@H]2OC(CNCc3ccc(S(C)(=O)=O)cc3)CC(N(C)C)C2O)[C@](C)(OC)C[C@@H](C)CN[C@H](C)[C@H]2NC(=O)O[C@@]21C (stereo partly drawn) [Compound 45]	≥ 32	≥ 32	≥ 32	≥ 32	≥ 32
CC[C@H]1OC(=O)C(C)C(=O)[C@H](C)[C@@H](O[C@@H]2O[C@H](CCc3ccccc3)CC(N(C)C)[C@H]2O)[C@](C)(OC)C[C@@H](C)CN[C@H](C)[C@H]2NC(=O)O[C@@]21C (stereo partly drawn) [Compound 186, 3-Descladinosyl-3-oxo-6-O-methyl-N9a-desmethyl-11,12-dideoxy-12,11-(oxycarbonylimino)-6′-benzyl Azithromycin]	≤ 4	8 to 32 (≈ 11.4 to 45.5 µM)	≥ 32	8 to 32 (≈ 11.4 to 45.5 µM)	≤ 4
CC[C@H]1OC(=O)C(C)C(=O)[C@H](C)[C@@H](OC2OC(CN(C)C(=O)C(C)(C)C)CC(N(C)C)C2O)[C@](C)(OC)C[C@@H](C)CN[C@H](C)[C@H]2NC(=O)O[C@@]21C (stereo partly drawn) [Compound 170, 3-Descladinosyl-3-oxo-6-O-methyl-N9a-desmethyl-11,12-dideoxy-12,11-(oxycarbonylimino)-6′-(N-methyl-N-pivaloylamino) Azithromycin]	8 to 32 (≈ 11 to 44 µM)	≥ 32	≥ 32	≥ 32	≥ 32
CC[C@H]1OC(=O)[C@]2(C)CCC(=O)CO[C@](C)(C[C@@H](C)CN[C@H](C)[C@H]3NC(=O)O[C@@]31C)[C@H](OC1OC(C)CC(N(C)C)C1O)[C@@H](C)C2=O (stereo partly drawn) [Compound 226]	≥ 32	≥ 32	≥ 32	≥ 32	≥ 32
CC[C@H]1OC(=O)C(C)C(=O)[C@H](C)[C@@H](O[C@@H]2O[C@H](C(C)N)CC(N(C)C)[C@H]2O)[C@](C)(OC)C[C@@H](C)CN[C@H](C)[C@H]2NC(=O)O[C@@]21C (stereo partly drawn) [Compound 181, 3-Desdadinosyl-3-oxo-6-O-methyl-N9a-desmethyl-11,12-dideoxy-12,11-(oxycarbonylimino)-6′-aminoethyl Azithromycin]	8 to 32 (≈ 12.4 to 49.8 µM)	≥ 32	≥ 32	≥ 32	≥ 32
CC[C@H]1OC(=O)C(C)C(=O)[C@H](C)[C@@H](OC2OC(CNC34CC(C3)C4)CC(N(C)C)C2O)[C@](C)(OC)C[C@@H](C)CN[C@H](C)[C@H]2NC(=O)O[C@@]21C (stereo partly drawn) [Compound 141, 3-Descladinosyl-3-oxo-6-O-methyl-N9a-desmethyl-11,12-dideoxy-12,11-(oxycarbonylimino)-6′-(bicyclo[1.1.1]pentanylamino) Azithromycin]	≤ 4	≤ 4	≥ 32	8 to 32 (≈ 11.5 to 46 µM)	8 to 32 (≈ 11.5 to 46 µM)
CC[C@H]1OC(=O)C(C)C(=O)[C@H](C)[C@@H](O[C@@H]2O[C@H]([C@@H](C)N(C)C)CC(N(C)C)[C@H]2O)[C@](C)(OC)C[C@@H](C)CN[C@H](C)[C@H]2NC(=O)O[C@@]21C (stereo partly drawn) [Compound 176, 3-Descladinosyl-3-oxo-6-O-methyl-N9a-desmethyl-11,12-dideoxy-12,11-(oxycarbonylimino)-6′-((R)-(dimethylamino)ethyl) Azithromycin]	≥ 32	≥ 32	≥ 32	≥ 32	≥ 32
CC[C@H]1OC(=O)C(C)C(=O)[C@H](C)[C@@H](OC2OC(CNCCC(F)(F)F)CC(N(C)C)C2O)[C@](C)(OC)C[C@@H](C)CN[C@H](C)[C@H]2NC(=O)O[C@@]21C (stereo partly drawn) [Compound 142, 3-Descladinosyl-3-oxo-6-O-methyl-N9a-desmethyl-11,12-dideoxy-12,11-(oxycarbonylimino)-6′-trifluoropropylamino Azithromycin]	≤ 4	8 to 32 (≈ 11 to 44.1 µM)	≥ 32	≥ 32	8 to 32 (≈ 11 to 44.1 µM)
CC[C@H]1OC(=O)[C@@]2(C)CCOC(C)(C[C@@H](C)CN[C@H](C)[C@H]3NC(=O)O[C@@]31C)[C@H](O[C@@H]1O[C@H](CNCC(F)(F)F)C[C@H](N(C)C)[C@H]1O)[C@@H](C)C2=O [Compound 206]	≤ 4	8 to 32 (≈ 11.1 to 44.3 µM)	≥ 32	≥ 32	≤ 4
CC[C@H]1OC(=O)C(C)C(=O)[C@H](C)[C@@H](O[C@@H]2OC(CN[C@H](C)c3ccc(F)cc3)CC(N(C)C)C2O)[C@](C)(OC)C[C@@H](C)CN[C@H](C)[C@H]2NC(=O)O[C@@]21C (stereo partly drawn) [Compound 33]	≤ 4	≥ 32	≥ 32	≥ 32	≥ 32
CC[C@H]1OC(=O)C(C)C(=O)[C@H](C)[C@@H](OC2OC(CN(C)C(C)=O)CC(N(C)C)C2O)[C@](C)(OC)C[C@@H](C)CN[C@H](C)[C@H]2NC(=O)O[C@@]21C (stereo partly drawn) [Compound 169, 3-Descladinosyl-3-oxo-6-O-methyl-N9a-desmethyl-11,12-dideoxy-12,11-(oxycarbonylimino)-6′-(N-methyl-N-acetylamino) Azithromycin]	≥ 32	≥ 32	≥ 32	≥ 32	≥ 32
